According to patent publication US4138554A, “7-[D-α-(4-Hydroxy-1,5-naphthyridine-3-carboxamido)-α-phenyl (and p-hydroxyphenyl)acetamido]-3-carbamoyloxymethyl-3-cephem-4-carboxylic acids” (priority 1977, dated 1979):
Converted amounts (≈) assume the structure as drawn. Where two headings read alike, the source gives them in different places.

Key:
Type in all cases: cell-based
[1] = test system: Gram-negative (19 strains); experiment: Mean % relative activity (MIC) vs sulbenicillin, Gram-negative (19 strains)
Experimental: (§1) Minimum inhibitory concentrations (MIC) of BB-S520 were determined by serial two-fold agar dilution method using Steers' apparatus on Meuller-Hinton agar plate against 31 test organisms for the primary screening and also against 61 strains of Pseudomonas aeruginosa for the secondary evaluation. The results are shown in Table 1 and Table 2 along with those of BB-S514 and sulbenicillin.
(§2) Minimum inhibitory concentrations (MIC) of cephalosporins in the present study were determined by serial two-fold agar dilution method using Steers' apparatus on Mueller-Hinton agar plate against 31 test organisms for the primary screening and also against 61 strains of Pseudomonas aeruginosa for the secondary evaluation.

P. aeruginosa = experiment: MIC by serial two-fold agar dilution (Mueller-Hinton agar), P. aeruginosa, primary screening; settings: Pseudomonas aeruginosa, read-out: MIC
Experimental: as §1, §2

E. coli = experiment: MIC by serial two-fold agar dilution (Mueller-Hinton agar), E. coli; settings: Escherichia coli
Experimental: as §1, §2

Pseudomonas sp. = experiment: MIC by serial two-fold agar dilution (Mueller-Hinton agar), Pseudomonas sp.; settings: Pseudomonas sp. A20358, Table 6
Experimental: as §2

[2] = test system: Gram-positive (6 strains); experiment: Mean % relative activity (MIC) vs sulbenicillin, Gram-positive (6 strains)
Experimental: as §1, §2

Pseudomonas (6 strains) = experiment: Mean % relative activity (MIC) vs sulbenicillin, Pseudomonas (6 strains)
Experimental: as §1, §2

NC(=O)OCC1=C(C(=O)O)N2C(=O)C(NC(=O)[C@H](NC(=O)c3cnc4cccnc4c3O)c3ccc(O)cc3)C2SC1 (single isomer, unassigned) [BB-S530, Sodium 7-[D-(-)-α-(4-hydroxy-1,5-naphthyridine-3-carboxamido)-α-(p-hydroxyphenyl)acetamido]-3-carbamoyloxymethyl-3-cephem-4-carboxylate]
Mean % Relative Activity (SPBC = 100%) ([1]; G (-) (19 strains), Table 5): 108% | MIC (P. aeruginosa; P. aeruginosa A9843, Table 6): 1.6 µg/mL | MIC (P. aeruginosa; P. aeruginosa A9930, Table 6): 0.8 µg/mL | MIC (P. aeruginosa; P. aeruginosa A15150, Table 6): 1.6 µg/mL | MIC (P. aeruginosa; P. aeruginosa A20229, Table 6): 1.6 µg/mL | MIC (P. aeruginosa; P. aeruginosa A20717, Table 6): 3.1 µg/mL | MIC (E. coli; E. coli A9435, Table 6, read-out: MIC): 3.1 µg/mL | MIC (E. coli; E. coli A9844, Table 6, read-out: MIC): 0.4 µg/mL | MIC (E. coli; E. coli A10664, Table 6, read-out: MIC): 0.2 µg/mL | MIC (E. coli; E. coli A20366, Table 6, read-out: MIC): > 100 µg/mL | MIC (E. coli; E. coli A20520, Table 6, read-out: MIC): 3.1 µg/mL | MIC (E. coli; E. coli A20732, Table 6, read-out: MIC): 3.1 µg/mL | MIC (E. coli; E. coli A20898, Table 6, read-out: MIC): 100 µg/mL | MIC (E. coli; E. coli Juhl A15119, Table 6, read-out: MIC): 1.6 µg/mL | MIC (E. coli; E. coli NIHJ, Table 6, read-out: MIC): 1.6 µg/mL | MIC (Pseudomonas sp.): 0.4 µg/mL | Mean % Relative Activity (SPBC = 100%) ([2]; G (+) (6 strains), Table 5): 141% | Mean % Relative Activity (SPBC = 100%) (Pseudomonas (6 strains); P. aerug. (6 strains), Table 5): 1425%

CC(=O)OCC1=C(C(=O)O)N2C(=O)C(NC(=O)C(NC(=O)c3cnc4cccnc4c3O)c3ccccc3)C2SC1 (stereo not drawn) [BB-S514]
Mean % Relative Activity (Sulbenicillin = 100%) ([1]; Gram-negative (19 strains), from geometric means of MICs in Table 1): 96% | MIC (P. aeruginosa; P. aeruginosa (1st line), Table 1): 3.1 µg/mL (≈ 5.37 µM) | MIC (P. aeruginosa; P. aeruginosa (2nd line), Table 1): 3.1 µg/mL (≈ 5.37 µM) | MIC (P. aeruginosa; P. aeruginosa (3rd line), Table 1): 6.3 µg/mL (≈ 10.9 µM) | MIC (P. aeruginosa; P. aeruginosa (4th line), Table 1): 25 µg/mL (≈ 43.3 µM) | MIC (P. aeruginosa; P. aeruginosa (5th line), Table 1): 6.3 µg/mL (≈ 10.9 µM) | MIC (P. aeruginosa; P. aeruginosa (6th line), Table 1): 3.1 µg/mL (≈ 5.37 µM) | MIC (E. coli; E. coli Juhl, Table 1, read-out: MIC): 12.5 µg/mL (≈ 21.6 µM) | MIC (E. coli; E. coli NIHJ, Table 1, read-out: MIC): 0.1 µg/mL (≈ 0.173 µM) | MIC (E. coli; E. coli, unnamed strain (3rd E. coli line), Table 1): 0.4 µg/mL (≈ 0.693 µM) | MIC (E. coli; E. coli, unnamed strain (4th E. coli line), Table 1, read-out: MIC): 0.4 µg/mL (≈ 0.693 µM) | MIC (E. coli; E. coli, unnamed strain (5th E. coli line), Table 1, read-out: MIC): > 100 µg/mL | MIC (E. coli; E. coli, unnamed strain (6th E. coli line), Table 1, read-out: MIC): 6.3 µg/mL (≈ 10.9 µM) | MIC (E. coli; E. coli, unnamed strain (7th E. coli line), Table 1, read-out: MIC): > 100 µg/mL | MIC (E. coli; E. coli, unnamed strain (8th E. coli line), Table 1, read-out: MIC): 12.5 µg/mL (≈ 21.6 µM) | MIC (E. coli; E. coli, unnamed strain (9th E. coli line), Table 1, read-out: MIC): 0.8 µg/mL (≈ 1.39 µM) | Mean % Relative Activity (Sulbenicillin = 100%) ([2]; Gram-positive (6 strains), from geometric means of MICs in Table 1): 71% | Mean % Relative Activity (Sulbenicillin = 100%) (Pseudomonas (6 strains); Pseudomonas (6 strains), from geometric means of MICs in Table 1): 283%
